According to patent US10357036B2, “Compounds for controlling arthropods” (priority 2015, dated 2019):

Columns and labels:
Phaedon cochleariae = Phaedon cochleariae spray test; details: 100 g/ha; after 7 days
Spodoptera frugiperda = Spodoptera frugiperda spray test; assay type: in vivo; details: after 7 days
Tetranychus urticae = Tetranychus urticae spray test, OP-resistant (bean leaf discs); assay type: in vivo; details: 100 g/ha; after 6 days
Method: After 6 days, the efficacy in % is determined.

Ctenocephalides felis = Ctenocephalides felis oral test; assay type: in vivo; details: 100 ppm in citrated cattle blood; after 2 days
Method: • Solvent: Dimethyl Sulfoxide
To produce a suitable active ingredient formulation, 10 mg of active ingredient are mixed with 0.5 ml of dimethyl sulfoxide. Dilution with citrated cattle blood gives the desired concentration.
About 20 unfed adult cat fleas (Ctenocephalides fells) are placed into a chamber which is closed at the top and bottom with gauze. A metal cylinder whose bottom end is closed with parafilm is placed onto the chamber. The cylinder contains the blood/active ingredient formulation, which can be imbibed by the fleas through the parafilm membrane.

Boophilus microplus = Boophilus microplus injection test; assay type: in vivo; details: 20 μg/animal; assessed after 7 days
Method: • Solvent: dimethyl sulfoxide
1 μl of the active ingredient solution is injected into the abdomen of 5 engorged adult female cattle ticks (Boophilus microplus). The animals are transferred into dishes and kept in a climate-controlled room.

Row | Compound | efficacy (Phaedon cochleariae) [%] | efficacy (Spodoptera frugiperda; 100 g/ha) [%] | efficacy (Tetranychus urticae) [%] | efficacy (rate of extermination) (Ctenocephalides felis) [%] | efficacy (laying of fertile eggs) (Boophilus microplus) [%] | efficacy (Spodoptera frugiperda; 20 g/ha) [%]
1 | CCC(=O)N(C)Cc1cc(-c2cnn(-c3c(Cl)cc(C(F)(C(F)(F)F)C(F)(F)F)cc3Cl)c2)ccc1C(F)(F)F [Ia-78] | 100 | – | – | – | – | –
2 | CC(=O)N(C)Cc1cc(-c2cnn(-c3c(Cl)cc(C(F)(C(F)(F)F)C(F)(F)F)cc3Cl)c2)ccc1Br [Ia-165] | 100 | 100 | 90 | – | – | –
3 | CC(=O)NCc1cc(-c2cnn(-c3c(Cl)cc(C4(C(F)(F)F)CC4)cc3Cl)c2)ccc1F [Ia-124] | 100 | – | – | – | – | –
4 | CC(=O)NCc1cc(-c2cnn(-c3c(Cl)cc(C(F)(C(F)(F)F)C(F)(F)F)cc3OC(F)(F)F)c2)ccc1F [Ia-06] | 100 | 100 | – | – | – | –
5 | CC(=O)NCc1cccc(-c2cnn(-c3c(Cl)cc(C(F)(C(F)(F)F)C(F)(F)F)cc3Cl)c2)c1F [Ia-153] | 100 | – | – | – | – | –
6 | CCC(=O)NCc1cc(-c2cnn(-c3c(Cl)cc(C(F)(C(F)(F)F)C(F)(F)F)cc3C#N)c2)ccc1Cl [Ia-114] | 100 | 100 | – | – | – | –
7 | CC(=O)N(C)Cc1cc(-c2cnn(-c3c(F)cc(C(F)(C(F)(F)F)C(F)(F)F)cc3Br)c2)ccc1Cl [Ia-100] | 100 | 100 | 100 | – | – | –
8 | CC(C)(C)C(=O)NCc1cc(-c2cnn(-c3c(Cl)cc(C(F)(C(F)(F)F)C(F)(F)F)cc3C(F)F)c2)ccc1F [Ia-62] | 100 | – | – | – | – | –
9 | CC(=O)NCc1cc(-c2cnn(-c3c(Cl)cc(C(F)(C(F)(F)F)C(F)(F)F)cc3Cl)c2)ccc1Br [Ia-164] | 100 | 100 | 100 | – | – | –
10 | CCC(=O)NCc1cc(-c2cnn(-c3c(Cl)cc(C4(C(F)(F)F)CC4)cc3Cl)c2)ccc1F [Ia-123] | 100 | 83 | – | – | – | –
11 | CCC(=O)NC(C)c1cc(-c2cnn(-c3c(Cl)cc(C(F)(C(F)(F)F)C(F)(F)F)cc3Cl)c2)ccc1F (stereo not shown) [Ia-50] | – | 100 | – | – | – | –
12 | CC(=O)NCc1cc(-c2cnn(-c3c(Cl)cc(S(=O)(=O)C(F)(F)F)cc3Cl)c2)ccc1Cl [Ia-88] | 100 | 83 | 100 | 100 | 100 | –
13 | O=S(=O)(NCc1cc(-c2cnn(-c3c(Cl)cc(C(F)(C(F)(F)F)C(F)(F)F)cc3Cl)c2)ccc1Cl)c1ccccc1 [Ic-05] | 100 | 100 | – | – | – | –
14 | CC(=O)N(C)Cc1cc(-c2cnn(-c3c(Cl)cc(C(F)(C(F)(F)F)C(F)(F)F)cc3Cl)c2)ccc1C(F)(F)F [Ia-77] | 100 | 100 | – | 100 | 100 | –
15 | CCC(=O)NCc1cc(-c2cnn(-c3c(Cl)cc(C(F)(C(F)(F)F)C(F)(F)F)cc3OC(F)(F)F)c2)ccc1Cl [Ia-86] | 100 | 100 | – | – | – | –
16 | CCCN(Cc1cc(-c2cnn(-c3c(Cl)cc(C(F)(C(F)(F)F)C(F)(F)F)cc3Cl)c2)ccc1Cl)C(C)=O [Ia-112] | 100 | 100 | 90 | – | – | –
17 | CCC(=O)NCc1cc(-c2cnn(-c3c(Cl)cc(C(F)(C(F)(F)F)C(F)(F)F)cc3Cl)c2)ccc1C [Ia-81] | – | 100 | 100 | – | – | –
18 | CCC(=O)NCc1cccc(-c2cnn(-c3c(Cl)cc(C(F)(C(F)(F)F)C(F)(F)F)cc3C#N)c2)c1 [Ia-97] | 100 | – | – | – | – | –
19 | CCC(=O)NCc1cc(-c2cnn(-c3c(Cl)cc(C(F)(C(F)(F)F)C(F)(F)F)cc3OC(F)F)c2)cnc1Cl [Ia-160] | 100 | 100 | 100 | – | – | –
20 | CCN(Cc1cc(-c2cnn(-c3c(Cl)cc(C(F)(C(F)(F)F)C(F)(F)F)cc3Cl)c2)ccc1Cl)C(C)=O [Ia-109] | 100 | 100 | 100 | – | – | –
21 | O=C(NCc1cc(-c2cnn(-c3c(Cl)cc(C(F)(C(F)(F)F)C(F)(F)F)cc3Cl)c2)ccc1Cl)C(F)F [Ia-119] | 100 | 100 | 100 | – | – | –
22 | CCC(=O)NCc1cc(-c2cnn(-c3c(Cl)cc(C(F)(C(F)(F)F)C(F)(F)F)cc3C#N)c2)ccc1C [Ia-101] | 100 | 100 | – | – | – | –
23 | O=C(NCc1cc(-c2cn(-c3c(Cl)cc(C(F)(C(F)(F)F)C(F)(F)F)cc3Cl)nn2)ccc1Cl)C1CC1 [I-T7-03] | 100 | 100 | – | – | – | –
24 | N-[1-(2-chloro-5-{1-[2,6-dichloro-4-(1,1,1,2,3,3,3-heptafluoropropan-2-yl)phenyl]-1H-pyrazol-4-yl}phenyl)ethyl]propanamide [Ia-47] | 100 | 83 | – | – | – | –
25 | C[S+]([O-])c1cc(C(F)(C(F)(F)F)C(F)(F)F)cc(Cl)c1-n1cc(-c2ccc(F)c(CNC(=O)C3CC3)c2)cn1 (stereo not shown) [Ia-43] | 100 | – | 90 | – | – | 83

Row | Compound | efficacy (Phaedon cochleariae) [%] | efficacy (Spodoptera frugiperda; 100 g/ha) [%] | efficacy (Tetranychus urticae) [%] | efficacy (rate of extermination) (Ctenocephalides felis) [%] | efficacy (laying of fertile eggs) (Boophilus microplus) [%] | efficacy (Spodoptera frugiperda; 20 g/ha) [%]
26 | CN(Cc1cc(-c2cnn(-c3c(Cl)cc(C(F)(C(F)(F)F)C(F)(F)F)cc3Cl)c2)ccc1Cl)C(=O)C1CC1 [Ia-24] | 100 | 100 | – | – | – | –
27 | CC(=S)N(C)Cc1cc(-c2cnn(-c3c(Cl)cc(C(F)(C(F)(F)F)C(F)(F)F)cc3Cl)c2)ccc1Cl [Ia-163] | 100 | 83 | 100 | – | – | –
28 | O=C(CC(F)(F)F)NCc1cccc(-c2cnn(-c3c(Cl)cc(C(F)(C(F)(F)F)C(F)(F)F)cc3Cl)c2)c1 [Ia-21] | 100 | 100 | – | – | – | –
29 | CC(=O)N(C)Cc1cc(-c2cnn(-c3c(Cl)cc(C(F)(C(F)(F)F)C(F)(F)F)cc3Cl)c2)c(F)cc1Cl [Ia-110] | 100 | 100 | – | – | – | –
30 | CC(=O)NCc1cc(-c2cnn(-c3c(F)cc(C(F)(C(F)(F)F)C(F)(F)F)cc3Br)c2)ccc1Cl [Ia-92] | 100 | 100 | 100 | – | – | –
31 | CCC(=O)NCc1cc(-c2cnn(-c3c(Cl)cc(C(F)(C(F)(F)F)C(F)(F)F)cc3Cl)c2)ccc1Br [Ia-166] | 100 | 100 | 100 | – | – | –
32 | CC(=O)NC(C)c1cc(-c2cnn(-c3c(Cl)cc(C(F)(C(F)(F)F)C(F)(F)F)cc3Cl)c2)ccc1F (stereo not shown) [Ia-49] | 100 | 100 | – | – | – | –
33 | CC(=O)N(C)Cc1cc(-c2cnn(-c3c(Cl)cc(C(F)(C(F)(F)F)C(F)(F)F)cc3OC(F)(F)F)c2)ccc1Cl [Ia-85] | 100 | 100 | 100 | – | – | –
34 | CCC(=O)NCc1cc(-c2cn(-c3c(Cl)cc(C(F)(C(F)(F)F)C(F)(F)F)cc3Cl)nn2)ccc1Cl [I-T7-02] | 100 | 100 | – | – | – | –
35 | CCC(=O)N(C)Cc1cc(-c2cnn(-c3c(Cl)cc(C(F)(C(F)(F)F)C(F)(F)F)cc3Cl)c2)ccc1Br [Ia-167] | 100 | 100 | 100 | – | – | –
36 | CCC(=O)N(C)Cc1cc(-c2cnn(-c3c(Cl)cc(C(F)(C(F)(F)F)C(F)(F)F)cc3OC(F)(F)F)c2)ccc1Cl [Ia-87] | 100 | 100 | 100 | – | – | –
37 | CCC(=O)NCc1cccc(-c2cnn(-c3c(Cl)cc(C(F)(C(F)(F)F)C(F)(F)F)cc3C(F)F)c2)c1 [Ia-39] | 100 | 100 | 100 | – | – | –
38 | CCC(=O)NCc1cc(-c2cnn(-c3c(Cl)cc(C(F)(C(F)(F)F)C(F)(F)F)cc3C#N)c2)ccc1F [Ia-103] | 100 | 100 | – | – | – | –
39 | O=C(NCc1cc(-c2cnn(-c3c(Cl)cc(C(F)(C(F)(F)F)C(F)(F)F)cc3Cl)c2)ccc1Cl)C(F)(F)F [Ia-120] | 100 | 100 | 100 | – | – | –
40 | CC(=O)NCc1cccc(-c2cnn(-c3c(Cl)cc(C(F)(C(F)(F)F)C(F)(F)F)cc3Cl)c2)c1 [Ia-09] | 100 | 100 | 90 | – | – | –
41 | CS(=O)(=O)c1cc(C(F)(C(F)(F)F)C(F)(F)F)cc(Cl)c1-n1cc(-c2ccc(F)c(CNC(=O)C3CC3)c2)cn1 [Ia-44] | 100 | – | 100 | – | – | –
42 | CCC(=O)NCc1cc(-c2cnn(-c3c(F)cc(C(F)(C(F)(F)F)C(F)(F)F)cc3Br)c2)ccc1Cl [Ia-94] | 100 | 100 | – | – | – | –
43 | CC(=O)NCc1cc(-c2cn(-c3c(Cl)cc(C(F)(C(F)(F)F)C(F)(F)F)cc3Cl)cn2)ccc1F [I-T2-01] | 100 | – | – | – | – | –
44 | CC(=O)N(C)Cc1cc(-c2cnn(-c3c(Cl)cc(C(F)(C(F)(F)F)C(F)(F)F)cc3Br)c2)ccc1Cl [Ia-99] | 100 | 100 | 100 | – | – | –
45 | CCC(=O)NCc1cc(-c2cnn(-c3c(Cl)cc(C(F)(C(F)(F)F)C(F)(F)F)cc3Br)c2)ccc1Cl [Ia-89] | 100 | 100 | 90 | – | – | –
46 | CCC(=O)NCc1cc(-c2cn(-c3c(Cl)cc(C(F)(C(F)(F)F)C(F)(F)F)cc3Cl)cn2)ccc1F [I-T2-03] | 100 | – | – | – | – | –
47 | CCC(=O)NCc1cc(-c2cnn(-c3c(Cl)cc(C(F)(C(F)(F)F)C(F)(F)F)cc3Cl)c2)c(F)cc1Cl [Ia-111] | 100 | 100 | 100 | – | – | –
48 | Cc1cc(C(F)(C(F)(F)F)C(F)(F)F)cc(Cl)c1-n1cc(-c2cccc(CNC(=O)C3CC3)c2)cn1 [Ia-70] | 100 | – | – | – | – | –
49 | CCC(=O)N(C)Cc1cc(-c2cnn(-c3c(Cl)cc(C(F)(C(F)(F)F)C(F)(F)F)cc3OC(F)(F)F)c2)ccc1F [Ia-27] | 100 | 100 | 100 | – | – | –
